# Results from patent US5639793A, “Mammalian DNA topoisomerase II inhibitor and method” (The University of North Carolina at Chapel Hill, priority 1995, dated 1997).
# “Also recorded” adds a separate entry of the source. Read-outs that look alike come from different tables or passages of the source.
# Experiments:
# HIV replication = details: background (Baum); cited from earlier work
# [1] = test system: mammalian DNA topoisomerase II; test: P4 DNA unknotting assay, topoisomerase II inhibition in vitro; assay type: biochemical, HeLa (human); details: for Topoisomerase II activity on decreasing drug concentration (P4 DNA unknotting): 2-fold serial dilutions; for Potency relative to VP-16 (topoisomerase II inhibition): more potent than VP-16
# Procedure: DNA topoisomerase II was purified as described (Kashiwada). Briefly, a 150 mM NaCl extract from Triton X-100-treated HeLa cell nuclei was obtained. Salt was dialyzed and the partially purified enzyme was loaded on a heparin-Sepahrose CL-6B column and batch eluted with a buffer containing increasing salt concentrations.
# Enzyme activity was measured using the P4 DNA unknotting assay (Liu, 1981). P4 DNA isolated from bacteriophage P4 consists of monomeric DNA circles with their cohesive ends hydrogen-bonded and contains multiple topological knots. Such highly knotted P4 DNA can be converted to its simple circular form by mammalian DNA topoisomerase II, and can be used as a sensitive assay to detect topoisomerase II activity.
# P4 DNA unknotting reactions by topoisomerase II were performed in the absence or presence of potential topoisomerase II inhibitors. […] Products from the […] reactions were run out on an agarose gel to determine the extent of P4 DNA unknotting and stained with ethidium bromide.
# Topoisomerase II was purified from calf thymus by a known method (Kashiwada). P4 DNA was prepared as described (Liu, 1983). Agarose gel assays for P4 DNA unknotting were performed as follows. Reactions (20 microliters) containing 50 mM Tris-HCl (pH 7.5), 100 mM KCl, 10 mM magnesium chloride, 1 mM ATP, 0.5 mM dithiothreitol, 0.5 mM EDTA, bovine serum albumin (30 microgram/ml), 100 ng P4 DNA, one unit of HeLa DNA topoisomerase II, and varying concentrations of topoisomerase II inhibitors were incubated at 37° C. After 30 minutes, reactions were terminated by addition of a solution containing 10% SDS. The samples were electrophoresed through a 1% agarose gel in 90 mM Trisborate (pH 8.3)-2 mM EDTA buffer (Rowe).
# [2] = test system: human osteogenic sarcoma (HOS) cells; test: Protein-linked DNA breaks in HOS cells (K-SDS precipitation); assay type: cell-based; details: for Induction of protein-linked DNA breaks: 30 minutes; for Induction of protein-linked DNA breaks in HOS cells: 20 micromolar, FIG. 9B; for Reversal of protein-linked DNA breaks after drug removal: an hour after removal
# Procedure: Quantitation of protein-linked DNA breaks was performed according to a published procedure (Rowe). DNA in growing cells was labeled by adding methyl-^3 H-thymidine. […] Cells were lysed and protein-linked DNA complexes were precipitated by the K-SDS precipitiation method (Rowe).
# (§1) A modified K-SDS precipitation assay was used to quantitate in vivo formation of protein-linked DNA breaks (Rowe). HOS cells were grown in Eagle's medium. The DNA in logarithmically growing cells (about 2×10^5 cells) was labelled by adding tritiated methyl-thymidine (specific activity: 40 Ci/mmol) into the medium to a final concentration of 0.5 microCurie per ml. After overnight incubation, cells were washed and incubated for another 2 hours at 37° C. The cells were then treated with various concentrations of drugs for 30 minutes. The cells were lysed with 1 ml prewarmed lysis solution containing 1.25% SDS, 5 mM EDTA (pH 8) salmon sperm DNA (0.4 mg/ml).
# (§2) The lysate was transferred to a 1.5 ml Eppendorf tube and after syringing 8 times through a 22 G 11/2 gauge needle, 250 microliter of 325 mM KCl were added. The sample was cooled on ice for 10 minutes and centrifuged at 4° C. The pellet was resuspended in 10 mM Tris-HCl (pH 8)-100 mM KCl-1 mM EDTA and salmon sperm DNA (0.1 mg/ml) and placed at 65° C. for 10 minutes with occasional mixing. The suspension was cooled on ice for 10 minutes and recentrifuged. The pellet was washed again before resuspending in water (65° C.). The suspension was combined with 4 ml scintillation fluid and the radioactivity was determined.
# (§3) Protein-linked DNA breaks assays were performed as described for Example 4 using HOS and HOS colR cells. Cells were treated with 20 micromolar […], TFC and TMBC.
# [3] = background; cited from earlier work
# HOS cells = test: Plating efficiency / cytotoxicity in HOS cells; details: one-hour treatment, Table 1
# Procedure: Plating efficiencies are indicative of a compound's cytotoxicity (Goz).
# (§4) Colonies of about 50 or more cells were counted and the plating efficiency was calculated as the per cent cells that were able to form colonies (Goz).
# [4] = test system: BHK-Ve cells (BHK-B cells treated with vincristine in the presence of verapamil); test: BHK-Ve cell growth inhibition; assay type: cell-based, hamster
# Procedure: (§5) Cell growth inhibition assays were performed according to published procedures (Crumpton).
# Verapamil inhibits drug binding to the p170 glycoprotein drug efflux pump.
# (§6) The HOS cell growth inhibition assays were done according to a published procedure (Crumpton). All cells were grown in Eagle's minimium essential medium supplemented with 10% fetal bovine serum. Flasks were seeded at a density of 1×10^3 cell/cm^2 for monolayer cultures or 2×10^4 /ml for suspension cultures. Suspension cultures were used immediately for drug addition after dilution to a suitable starting density, and, about 24 hours after seeding, the compounds to be tested were added to the monolayer cultures. […] Control flasks also contained 0.1% DMSO.
# as §4
# HOS colR cells = test: Protein-linked DNA breaks in HOS colR cells; assay type: cell-based, human; details: 20 micromolar, FIG. 9B
# Procedure: The amount of protein-linked DNA breaks caused by VP-16, TFC and TMBC were compared in HOS and HOS colR cells to determine whether […] glycoprotein expression would affect these drugs' ability to induce protein-linked DNA breaks and inhibit topoisomerase II activity.
# as §1, §2, §3
# [5] = test system: human osteogenic sarcoma (HOS) cells; test: HOS cell growth inhibition (antiproliferative activity); assay type: cell-based
# Procedure: (§7) Additionally, baby hamster kidney (BHK) cell growth inhibition by these derivatives was investigated.
# as §5, §6, §4
# [6] = test system: BHK-B cells (vincristine-selected, expressing p170 glycoprotein); details: for BHK-B growth inhibition compared with BHK, in words: BHK-B versus BHK; for Export by the drug efflux pump: p170 glycoprotein, conclusion from BHK-B data; for EC50: read-out: BHK-B-EC50
# Procedure: as §5
# BHK-B cells are baby hamster kidney cells that have been selected with 0.05 microgram/ml vincristine and that express p170 glycoprotein. Sensitivity of BHK-B cells to TFC, TMBC and vincristine was investigated.
# as §6, §4
# [7] = test system: HOS cells resistant to colchicine (HOS colR), expressing p170 glycoprotein; test: HOS colR cell growth inhibition; assay type: cell-based, human; details: for EC50: HOS colR cells; for EC50 for HOS colR cells compared with HOS cells: HOS colR versus HOS not expressing p170
# Procedure: as §5, §6, §4
# [8] = test system: baby hamster kidney (BHK) cells; test: BHK cell growth inhibition; assay type: cell-based
# Procedure: as §7, §5, §6, §4
# [9] = test system: mammalian DNA topoisomerase II; details: D'Arpa; cited from earlier work
# [10] = read-out: EC50, HOS cell replication
# [11] = 10-50 micromolar TFC, increasing concentrations TMBC
# [12] = Table 2, read-out: HOS ColR EC50
Compound,HOS--LD50 (HOS cells) [µM],"EC50 ([4]; Table 2, read-out: BHK-Ve-EC50) [µM]","EC50 ([4]; read-out: EC50, BHK-Ve cells) [µM]",Induction of protein-linked DNA breaks in HOS colR cells (HOS colR cells),"EC50 ([5]; Table 1, read-out: HOS--EC50) [µM]","EC50 [5, 10] [µM]","BHK-B growth inhibition compared with BHK, in words [6]",Export by the drug efflux pump [6],"EC50 ([6]; BHK-B cells, Table 2) [µM]",Potency relative to VP-16 (topoisomerase II inhibition) [1],Induction of protein-linked DNA breaks in HOS cells [2],"Induction of protein-linked DNA breaks [2, 11]",Reversal of protein-linked DNA breaks after drug removal [2],"EC50 [7, 12] [µM]","EC50 ([7]; read-out: EC50, HOS colR cells) [µM]",EC50 for HOS colR cells compared with HOS cells [7],further results
"COc1cc2c(c(OC)c1OC)-c1ccc(OC)c(=O)cc1[C@@H](NC(C)=O)CC2 [Colchicine, colchicine, reference compound]",,,,,,,,,,,,,,,,,Inhibition of HIV replication (HIV replication): inhibitor of HIV replication; Inhibition of topoisomerase II activity ([1]; concentrations as high as 200 micromolar): does not appear to inhibit topoisomerase II activity; Induction of protein-linked DNA breaks ([2]; colchicine 50 micromolar): did not induce protein-linked DNA breaks; Toxicity at therapeutic doses [3]: usually at toxic or nearly toxic doses
"O=C(N[C@H]1CCc2cc(O)c(O)c(O)c2-c2ccc(O)c(=O)cc21)C(F)(F)F [TFC, N-trifluoroacetyl-1,2,3,10-tetrademethyldeactylcolchicine]",14,37,37,Neither protein-linked DNA cleavage by either TFC or TMBC appear to be affected by the expression of g170 glycoprotein,28,28,inhibited by approximately similar concentrations,are not,82,about 2 fold,can induce protein-linked DNA cleavage to a lesser extent,induces DNA breaks in a dose-dependent manner; also recorded: induce protein-linked DNA breaks in a dose-dependent fashion,within an hour all the protein-linked DNA breaks have been reversed,26,26,remained virtually unchanged,"Topoisomerase II activity on decreasing drug concentration (P4 DNA unknotting) ([1]; 50 to 6.25 micromolar, FIG. 8 lanes 7-10): more striking increase of enzyme activity as the concentration of TFC is decreased; Protein-linked DNA breaks reversed within half an hour of drug removal ([2]; within half an hour after removal): approximately 90%"
"O=C(N[C@H]1CCc2cc(O)c(O)c(O)c2-c2ccc(O)c(=O)cc21)c1cc(O)c(O)c(O)c1 [TMBC, N-(3',4',5'-trihydroxybenzoyl)-1,2,3,10-tetrademethyldeacetylcolchicine]",18,24,24,Neither protein-linked DNA cleavage by either TFC or TMBC appear to be affected by the expression of g170 glycoprotein,21,21,inhibited by approximately similar concentrations,are not,13,~17 fold,can induce protein-linked DNA cleavage to a lesser extent,almost as effective as TFC for protein-linked DNA break induction; also recorded: induce protein-linked DNA breaks in a dose-dependent fashion,"more slowly reversed than for TFC, so that after an hour's time after reversal some protein-linked DNA breaks still remain",28,28,remained virtually unchanged,"EC50 ([8]; Table 1, read-out: BHK--EC50): 28 µM; EC50 ([8]; read-out: EC50, BHK growth inhibition): 28 µM"
"COc1cc([C@@H]2c3cc4c(cc3[C@@H](O[C@@H]3O[C@@H]5CO[C@@H](C)O[C@H]5[C@H](O)[C@H]3O)[C@H]3COC(=O)[C@H]23)OCO4)cc(OC)c1O [VP-16, etoposide, reference compound]",,,,limited effect in causing protein-linked DNA breaks,,,,,,,very effective to cause protein-linked DNA breaks,,,,,,"Topoisomerase II activity on decreasing drug concentration (P4 DNA unknotting) ([1]; 100 to 12.5 micromolar, FIG. 8 lanes 3-6): increase of topoisomerase II activity as the concentration of VP-16 is decreased; Topoisomerase II inhibition, known [9]: known to inhibit topoisomerase II activity"
"CC[C@]1(O)C[C@H]2CN(CCc3c([nH]c4ccccc34)[C@@](C(=O)OC)(c3cc4c(cc3OC)N(C=O)[C@H]3[C@@](O)(C(=O)OC)[C@H](OC(C)=O)[C@]5(CC)C=CCN6CC[C@]43[C@@H]65)C2)C1 [Vincristine, reference compound]",,,,,,,,exported by the drug efflux pump,,,,,,,,,"BHK--EC50 ([8]; Table 1): 0.006 µg/mL; BHK-Ve-EC50 / concentration necessary to inhibit BHK-Ve cell growth ([4]; Table 2): 2.7 µg/mL; BHK-B-EC50 ([6]; BHK-B cells, Table 2): 0.34 µg/mL; Concentration necessary to inhibit BHK-B growth relative to BHK ([6]; hamster, bhk-b vs bhk cells): approximately 50 fold"
